From patent US10633338B2, “Binding Function 3 (BF3) site compounds as therapeutics and methods for their use” (THE UNIVERSITY OF BRITISH COLUMBIA, priority 2014, dated 2020)
pIC50: −log10 of the molar value. Read-outs that look alike come from different tables or passages of the source.

Tests used:
[1] = biological target: T1, androgen receptor (AR) (Homo sapiens, UniProt P10275, T878A); assay: eGFP cellular AR transcription assay; assay type: cell-based
T1 construct: stably transfected eGFP-expressing LNCaP human prostate cancer cells (LN-ARR2PB-eGFP) containing an androgen responsive probasin-derived promoter; endogenous in cells; host or cells: LNCaP (LN-ARR2PB-eGFP)
T1 sequence (P10275 1-920 T878A): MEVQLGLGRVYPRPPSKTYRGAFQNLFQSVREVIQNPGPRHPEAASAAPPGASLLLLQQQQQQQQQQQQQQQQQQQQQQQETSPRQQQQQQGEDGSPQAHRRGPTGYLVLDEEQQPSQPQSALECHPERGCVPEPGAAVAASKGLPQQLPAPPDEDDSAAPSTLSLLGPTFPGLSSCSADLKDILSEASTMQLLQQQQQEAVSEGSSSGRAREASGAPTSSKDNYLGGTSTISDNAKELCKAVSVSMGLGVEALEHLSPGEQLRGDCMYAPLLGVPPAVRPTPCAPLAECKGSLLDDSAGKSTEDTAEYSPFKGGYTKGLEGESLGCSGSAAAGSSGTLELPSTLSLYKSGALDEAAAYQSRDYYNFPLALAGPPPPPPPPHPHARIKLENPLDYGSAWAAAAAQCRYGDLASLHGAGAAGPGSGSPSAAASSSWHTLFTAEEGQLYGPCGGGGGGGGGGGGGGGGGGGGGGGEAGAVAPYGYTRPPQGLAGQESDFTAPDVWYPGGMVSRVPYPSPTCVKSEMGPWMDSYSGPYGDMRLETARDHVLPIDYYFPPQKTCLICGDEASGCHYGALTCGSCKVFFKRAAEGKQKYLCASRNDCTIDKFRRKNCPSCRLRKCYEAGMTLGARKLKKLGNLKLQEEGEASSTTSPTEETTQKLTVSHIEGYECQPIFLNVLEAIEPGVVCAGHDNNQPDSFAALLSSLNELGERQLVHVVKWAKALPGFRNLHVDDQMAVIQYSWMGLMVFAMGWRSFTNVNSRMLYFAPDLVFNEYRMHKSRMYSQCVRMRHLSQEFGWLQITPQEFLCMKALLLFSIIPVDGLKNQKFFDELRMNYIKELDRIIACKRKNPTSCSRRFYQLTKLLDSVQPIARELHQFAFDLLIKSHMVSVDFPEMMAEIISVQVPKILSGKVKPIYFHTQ
Method in brief: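 AR transcriptional activity is read as eGFP expression from a probasin-derived androgen-responsive promoter. Compound titrated 0-100 μM in the presence of 0.1 nM R1881; 35,000 cells/well.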

[2] = system: PSA; assay: Prostate Surface Antigen (PSA) assay, PSA excreted into the media; assay type: cell-based, human; conditions: same plates as eGFP assay; for pIC50: Homo sapiens, 72 h
Experimental: The evaluation of PSA excreted into the media was performed in parallel to the eGFP assay using the same plates (see above description). After the cells were incubated for 3 days 150 μl of the media was taken from each well, and added to 150 μl of PBS.

[3] = LN-ARR2PBeGFP LNCaP cells, 0.1 nM R1881, 3 days incubation, read-out: eGFP IC50
[4] = PSA excreted into media, 3 days incubation, read-out: PSA IC50
[5] = media after 3 days, read-out: IC50 (PSA)
[6] = LN-ARR2PB-eGFP LNCaP cells, 0.1 nM R1881, 3 days, 0-100 μM compound
[7] = LN-ARR2PB-eGFP LNCaP cells, 0.1 nM R1881, 3 days, 0-100 μM compound, read-out: IC50 (eGFP)
[8] = LN-ARR2PBeGFP LNCaP cells, 0.1 nM R1881, 3 days incubation
[9] = PSA excreted into media, 3 days incubation

Row | SMILES | pIC50 [1, 3] | pIC50 [2, 4] | further results
1 | Fc1ccc2c(-c3ccc4cccnc4c3)c[nH]c2c1 [Compound 13764] | 7.00 | 7.09 | pIC50 [2, 5]: 7.09
2 | c1ccc2c(Cc3nn[nH]n3)c[nH]c2c1 [13 700] | – | – | IC50 (eGFP) [1, 6]: IC50 (eGFP) = Inactive; IC50 (PSA) ([2]; media after 3 days): IC50 (PSA) = Inactive
3 | Brc1ccc2c(-c3ccc4ccccc4n3)c[nH]c2c1 [Compound 13568] | 5.89 | 5.81 | –
4 | O=[N+]([O-])c1cccc2c(-c3ccc4ccccc4c3)c[nH]c12 [Compound 13702] | 6.68 | 6.85 | –
5 | CC1(C)C(c2c[nH]c3ncccc23)=Nc2ccccc21 [13 537] | – | – | pIC50 [1, 7]: 6.15; pIC50 [2, 5]: 6.09
6 | CNC(=O)c1cccc2nc(-c3c[nH]c4c(C)c(F)c(F)cc34)ccc12 [Compound 13771] | 6.70 | 7.05 | –
7 | Fc1ccc(-c2c[nH]c3ncccc23)cc1 [13 740] | – | – | pIC50 [1, 7]: 6.92; pIC50 [2, 5]: 6.92
8 | Cc1cccc2c(-c3ncc4ccccc4n3)c[nH]c12 [Compound 13603] | 6.20 | 6.47 | –
9 | Fc1cccc2nc(-c3c[nH]c4c(Br)cccc34)ccc12 [Compound 13714] | – | – | eGFP IC50 [1, 8]: Inactive; PSA IC50 [2, 9]: Inactive
10 | Cc1cccc2c(C3=Nc4ccccc4CN3)c[nH]c12 [Compound 13604] | – | – | eGFP IC50 [1, 8]: Inactive; PSA IC50 [2, 9]: Inactive
11 | Fc1cc2c(-c3ccc4cccc(F)c4n3)c[nH]c2c(F)c1F [Compound 13774] | 6.15 | 6.11 | –
12 | Fc1ccc(F)c2c(-c3ccc4ccccc4n3)c[nH]c12 [Compound 13656] | 6.00 | 6.34 | –
13 | Cc1cccc2c(-c3cccnc3)c[nH]c12 [Compound 13655] | 5.78 | 6.21 | –
14 | Fc1cc2c(-c3ccc4c(F)cccc4n3)c[nH]c2c(F)c1F [Compound 13751] | – | – | eGFP IC50 [1, 8]: Inactive; PSA IC50 [2, 9]: Inactive
15 | Cn1ccc2cc(-c3ccc4ccccc4c3)ccc21 [13 756] | – | – | pIC50 [1, 7]: 5.70; pIC50 [2, 5]: 5.83
16 | c1ccc2nc(-c3c[nH]c4ccccc34)ccc2c1 [Compound 13562] | 7.22 | 6.85 | –
17 | Cc1ccc2ccc(Cl)nc2c1 [Compound 13727] | – | – | eGFP IC50 [1, 8]: Inactive; PSA IC50 [2, 9]: Inactive
18 | Cc1ccc2[nH]cc(C3Nc4ccccc4C3(C)C)c2c1 (centres unmarked) [13 535] | – | – | pIC50 [1, 7]: 5.82; pIC50 [2, 5]: 5.73
19 | c1ccc2c(c1)NC(c1c[nH]c3ccccc13)C21CCCCC1 (centres unmarked) [Compound 13534] | 6.10 | 5.90 | –
20 | Cc1ccc2ccc(-c3c[nH]c4c(C)cccc34)nc2c1 [Compound 13658] | 5.55 | 5.66 | –
21 | FC(F)(F)c1ccccc1/N=N/c1c[nH]c2ccccc12 [Compound 13259] | 6.52 | 6.60 | –
22 | CNC(=O)c1cccc2nc(-c3c[nH]c4c(C)cc(F)cc34)ccc12 [Compound 13710] | 6.64 | 6.60 | –
23 | c1ccc2c(-c3nn[nH]n3)c[nH]c2c1 [13 701] | – | – | IC50 (eGFP) [1, 6]: IC50 (eGFP) = Inactive; IC50 (PSA) ([2]; media after 3 days): IC50 (PSA) = Inactive
24 | Cc1cccc2cnn(-c3ccc4ccccc4n3)c12 [13 575] | – | – | pIC50 [1, 7]: 5.46; pIC50 [2, 5]: 5.87
25 | Cc1cc(Cl)cc2c(-c3ccc4ccccc4n3)c[nH]c12 [Compound 13626] | 5.57 | 5.78 | –
26 | Cc1ccc2[nH]cc(-c3ccc4ccccc4n3)c2c1 [13 577] | – | – | pIC50 [1, 7]: 5.49; pIC50 [2, 5]: 5.76
27 | Cc1cccc2c(-c3ccc4scnc4c3)c[nH]c12 [Compound 13758] | – | – | eGFP IC50 [1, 8]: Inactive; PSA IC50 [2, 9]: Inactive

Row | SMILES | pIC50 [1, 3] | pIC50 [2, 4] | further results
28 | Cc1cccc2c(-c3ccc4ccccc4c3)c[nH]c12 [Compound 13591] | 7.38 | 7.07 | –
29 | Cc1cccc2c(-c3ccc4c(Br)cccc4n3)c[nH]c12 [Compound 13678] | – | – | eGFP IC50 [1, 8]: Inactive; PSA IC50 [2, 9]: Inactive
30 | Cc1cccc2ccn(-c3ccc4ccc(F)cc4n3)c12 [Compound 13648] | – | – | eGFP IC50 [1, 8]: Inactive; PSA IC50 [2, 9]: Inactive
31 | Cc1cc(F)cc2c(-c3cnc4ccc(F)cc4n3)c[nH]c12 [Compound 13717] | 6.31 | 6.48 | –
32 | Cc1cc(F)cc2c(-c3ccc4cccc(F)c4n3)c[nH]c12 [Compound 13708] | 6.54 | 6.54 | –
33 | c1ccc2cc(-c3c[nH]c4ccncc34)ccc2c1 [13 685] | – | – | IC50 (eGFP) [1, 6]: IC50 (eGFP) = Inactive; IC50 (PSA) ([2]; media after 3 days): IC50 (PSA) = Inactive
34 | Cc1cc(F)cc2c(-c3cnc4ccc(F)cc4n3)n[nH]c12 [Compound 13718] | 6.43 | 6.96 | –
35 | Fc1cc2[nH]cc(-c3ccc4cccc(C(F)(F)F)c4n3)c2cc1F [Compound 13682] | 6.05 | 6.00 | –
36 | Cc1c(F)ccc2c(-c3ccc4c(F)cccc4n3)c[nH]c12 [Compound 13631] | – | – | eGFP IC50 [1, 8]: Inactive; PSA IC50 [2, 9]: Inactive
37 | COC(=O)c1cccc2c(-c3ccc(Br)cc3)c[nH]c12 [Compound 13736] | 6.21 | 6.17 | –
38 | Cc1cccc2c(-c3cnc4ccccc4c3)c[nH]c12 [13 654] | – | – | pIC50 [1, 7]: 6.04; pIC50 [2, 5]: 6.80
39 | Fc1cc(F)c2[nH]ccc2c1 [Compound 13723] | – | – | eGFP IC50 [1, 8]: Inactive; PSA IC50 [2, 9]: Inactive
40 | Fc1ccc2ccc(-c3c[nH]c4cc(F)c(F)cc34)nc2c1 [Compound 13630] | 6.22 | 6.37 | –
41 | Cc1ccc2[nH]cc(-c3ccc4ccccc4n3)c2c1 [Compound 13577] | 5.49 | 5.76 | –
42 | Brc1cccc2c(-c3cnc4ccccc4c3)c[nH]c12 [13 653] | – | – | pIC50 [1, 7]: 5.95; pIC50 [2, 5]: 6.54
43 | Fc1cc(F)c2[nH]cc(-c3ccc4cccc(F)c4n3)c2c1F [Compound 13752] | 6.43 | 6.59 | –
44 | Cc1[nH]c2ccccc2c1/N=N/c1ccccc1C(F)(F)F [Compound 13424] | 5.43 | 5.45 | –
45 | Cc1cc(F)cc2cc[nH]c12 [Compound 13722] | – | – | eGFP IC50 [1, 8]: Inactive; PSA IC50 [2, 9]: Inactive
46 | Fc1cc2c(-c3ccc4cccnc4c3)c[nH]c2c(F)c1F [Compound 13770] | 7.00 | 7.77 | –
47 | c1ccc2cc(-c3c[nH]c4ncccc34)ccc2c1 [13 676] | – | – | pIC50 [1, 7]: 7.28; pIC50 [2, 5]: 7.47
48 | CC1(C)c2ccc(Br)cc2NC1c1c[nH]c2c(OCc3ccccc3)cccc12 (centres unmarked) [13 543] | – | – | pIC50 [1, 7]: 5.43; pIC50 [2, 5]: 5.50
49 | Fc1ccc2ccc(Cl)nc2c1 [Compound 13728] | – | – | eGFP IC50 [1, 8]: Inactive; PSA IC50 [2, 9]: Inactive
50 | Cc1cccc2c(-c3ccc4ncsc4c3)c[nH]c12 [13 757] | – | – | IC50 (eGFP) [1, 6]: IC50 (eGFP) = Inactive; IC50 (PSA) ([2]; media after 3 days): IC50 (PSA) = Inactive
51 | C[C@@H]1Cc2ccccc2N1c1nc2ccccc2o1 [Compound 13245] | 5.77 | 5.77 | –
52 | c1ccc2ncc(-c3c[nH]c4ccccc34)cc2c1 [Compound 13628] | 6.10 | 6.21 | –
53 | Oc1cc2ccccc2cc1-c1nc2ccccc2[nH]1 [Compound 13687] | – | – | eGFP IC50 [1, 8]: Inactive; PSA IC50 [2, 9]: Inactive
